Test results taken from patent US8653071B2, “α4β2 neuronal nicotinic acetylcholine receptor ligands” (Suven Life Sciences Limited, priority 2009, dated 2014).

What was measured:
[1] = molecular target: Nicotinic Acetylcholine α4β2 Receptor (UniProt P09483+P12390); assay: Binding assay for human or rat nicotinic acetylcholine α4β2 receptor ([3H]Cytisine displacement); details: [3H]Cytisine 2.5 nM; rat brain frontal cortex or recombinant human receptor in CHO cells (not specified which); read-out: Ki
Male Wister rats = assay: Acute food intake study (animal model of hyperphagia); assay type: in vivo, rat; details: oral
Protocol: The appetite suppressing properties of compounds of this invention were studied using an animal model of hyperphagia.
Male Wister rats (200-210 grams) obtained from Raj Biotech, India were used as experimental animals. The experiment consisted of 6 days. The rats were adapted to the 18 hour fasting and 6 hour feeding pattern. The animals were housed in a group of three in the cages provided with the fasting grills and were fasted for 18 hours. After 18 hour fasting the rats were separated and placed individually in a cage. Weighed amount of feed was provided to rats for 6 hour and the feed intake at 1, 2, 4 and 6 hours was recorded. Again the rats were regrouped and fasted for 18 hour. The above procedure was followed for 5 days. The average cumulative food intake by the rats on the last 3 days was calculated. Animals were randomised on the basis of their last three days food intake.
One group of 8 rats received vehicle (2 mL/Kg) orally and another set of animals received compound of the formula (I) orally. Then the rats were given access to food and the food intake at 1, 2, 4 and 6 hours was recorded. The food intake by the rats treated with test compound was compared with the vehicle treated group by using students‘t’ test.

in vivo = details: male, Wistar, rat, po, 15 mg/kg
Protocol: Rodent Brain Penetration Study
Three animals were housed in each cage. Animals were given water and food ad libitum throughout the experiment, and maintained on a 12 hours light/dark cycle.
NCE compound was dissolved in water and administered orally. At Tmax (0.5, 1.0 and 2.0) animals were sacrificed to collect the plasma and brain tissue and were homogenized. Plasma and Brain was stored frozen at −20° C. until analysis. The concentrations of the NCE compound in plasma and Brain were determined using LC-MS/MS method.
The NCE compounds were quantified in plasma and brain homogenate by validated LC-MS/MS method using solid phase extraction technique. NCE compounds were quantified in the calibration range of 1-500 ng/mL in plasma and brain homogenate. Study samples were analyzed using calibration samples in the batch and quality control samples spread across the batch. Extents of brain-blood ratio were calculated (Cb/Cp).

CNCC1CC2CC2N1c1cccnc1.Cl (stereo not shown) [Example 4, N-[2-(Pyridin-3-yl)-2-azabicyclo[3.1.0]hex-3-ylmethyl]methylamine hydrochloride]
Ki [1]: 0.0594 µM
Inference (Male Wister rats): Active
% Suppression of food intake compared to vehicle, 1 Hour (Male Wister rats; 1 Hour, 18 hour fasted rats): 38.45%
% Suppression of food intake compared to vehicle, 2 Hour (Male Wister rats; 2 Hour, 18 hour fasted rats): 30.23%
% Suppression of food intake compared to vehicle, 4 Hour (Male Wister rats; 4 Hour, 18 hour fasted rats): 25.60%
% Suppression of food intake compared to vehicle, 6 Hour (Male Wister rats; 6 Hour, 18 hour fasted rats): 18.63%
Kp (in vivo): 11.7 ± 2.66
